{"source": "patent US10668055B2", "about": "“Cancer treatment using combinations of ERK and RAF inhibitors” (BIOMED VALLEY DISCOVERIES, INC., priority 2013, dated 2020)", "key": {"A375": {"system": "A375", "assay": "Single agent proliferation assay (CellTiter-Glo, 72 h)", "format": "cell-based, human", "settings": "A375, 72 h", "procedure": "(§1) Cells were seeded in 96-well plates at the densities and media conditions indicated in Table 17 and allowed to adhere overnight prior to addition of compound or vehicle control. Compounds were prepared from DMSO stocks to give the desired final concentrations. The final DMSO concentration was constant at 0.1%. Test compounds were incubated with the cells for 72 h at 37° C., 5% CO2 in a humidified atmosphere. CellTiter-Glo® reagent (Promega, Madison, Wis.) was added according to manufacturer's instructions and luminescence detected using the BMG FLUOstar plate reader (BMG Labtech, Ortenberg, Germany). The average media only background value was deducted and the data analysed using a 4-parameter logistic equation in GraphPad Prism (GraphPad Software, La Jolla, Calif.)."}, "G-361": {"system": "G-361", "assay": "Single agent proliferation assay (CellTiter-Glo, 72 h)", "format": "cell-based", "settings": "G-361, 72 h", "procedure": "as §1"}, "A375 cells": {"system": "A375 cells", "assay": "Dose escalation study in A375 cells", "format": "cell-based, human", "settings": "after 2 months, cells exposed to agent alone", "procedure": "Single agent dose escalations were performed based on Little et al., 2011 and is outlined in FIG. 25. Cells were then allowed to grow until 70-90% confluence and split. […] Medium was refreshed every 3-4 days. When cells again reached about 40-60% confluence, the dose was escalated. In the event that the 40-60% window was missed, the cells were split again and dosed once they reached 40-60% confluence. Again, medium was refreshed every 3-4 days. The process was repeated as required (FIG. 25)."}, "[1]": {"assay": "A375 in vivo study: toxicity (body weight, deaths, side effects)", "text": "Animals were weighed daily on Days 1-5, then twice per week until completion of the study. […] Individual body weight loss was monitored as per protocol, and any animal that exceeded the limits for acceptable body weight loss was euthanized. Group mean body weight loss also was monitored as per protocol. Dosing was to be suspended in any group that exceeded the limits for acceptable mean body weight loss. If mean body weight recovered, then dosing was to be resumed in that group, but at a lower dosage or less frequent dosing schedule.\nAcceptable toxicity for the maximum tolerated dose (MTD) was defined as a group mean body-weight loss of less than 20% during the study and not more than 10% treatment-related (TR) deaths. […] A death was classified as non-treatment-related (NTR) if there was no evidence that death was related to treatment side effects. NTR deaths were further characterized based on cause of death. A death was classified as NTRa if it resulted from an accident or human error. […] A death was classified as NTRu if the cause of death was unknown and there was no available evidence of death related to treatment side effects, metastasis, accident or human error, although death due to treatment side effects cannot be excluded."}, "[2]": {"system": "MAPK signaling pathway in A375 and HCT116 cells", "assay": "Western blot analysis of MAPK signaling, cell cycle and apoptosis proteins", "format": "cell-based, human", "procedure": "Cells were allowed to adhere overnight prior to addition of the indicated amount of test compound (BVD-523) or vehicle control. Cells were treated for either 4 or 24 hours before isolation of whole-cell protein lysates, as specified below. Cells were harvested by trypsinisation, pelleted and snap frozen. Lysates were prepared with RIPA (Radio-Immunoprecipitation Assay) buffer, clarified by centrifugation and quantitated by bicinchoninic acid assay (BCA) assay. 20-50 μg of protein was resolved by SDS-PAGE electrophoresis, blotted onto PVDF membrane and probed using the antibodies detailed in Table 13 (for the 4-hour treatment) and Table 14 (for the 24-hour treatment) below."}, "[3]": {"system": "A375 human melanoma xenograft", "assay": "A375 in vivo study: tumor growth delay and regression responses", "set-up": "species or system athymic nude mice", "settings": "for MTV (n) D45: Day 45", "procedure": "Female athymic nude mice (Crl:NU(Ncr)-Foxn/^nu, Charles River) were nine weeks old with a body weight (BW) range of 17.5 to 26.2 grams on Day 1 of the study. The animals were fed ad libitum water (reverse osmosis, 1 ppm CI), and NIH 31 Modified and Irradiated Lab Diet® consisting of 18.0% crude protein, 5.0% crude fat, and 5.0% crude fiber. The mice were housed on irradiated Enrich-o'cobs™ Laboratory Animal Bedding in static microisolators on a 12-hour light cycle at 20-22° C. (68-72° F.) and 40-60% humidity. The recommendations of the Guide for Care and Use of Laboratory Animals with respect to restraint, husbandry, surgical procedures, feed and fluid regulation, and veterinary care were complied with.\nTumor xenografts were initiated with A375 human melanomas by serial subcutaneous transplantation in athymic nude mice. On the day of tumor implant, each test mouse received a 1 mm^3 A375 fragment implanted subcutaneously in the right flank, and tumor growth was monitored as the average size approached the target range of 80 to 120 mm^3. Tumors were measured in two dimensions using calipers, and volume was calculated using the formula: […]\nTen days after tumor implantation, designated as Day 1 of the study, the animals were sorted into nine groups (Groups 1-9) each consisting of fifteen mice and one group (Group 10) consisting of ten mice. Individual tumor volumes ranged from 75 to 144 mm^3 and group mean tumor volumes were 110 or 111 mm^3.\nOn Day 1 of the study, mice were sorted into nine groups (Group 1-9) each consisting of fifteen mice and one group (Group 10) consisting of ten mice, and dosing was initiated according to the treatment plan summarized in Table 15 below. Each dose was given by oral gavage (p.o.) in a dosing volume of 10 mL/kg (0.2 mL per 20 grams of body weight), scaled to the body weight of each individual animal. The vehicle and dabrafenib doses were to be given once daily until study end (qd to end), whereas the BVD-523 doses were to be given twice daily until study end (bid to end). For bid dosing, dosing was initiated in the afternoon on Day 1, so that one dose was given on the first day (“first day 1 dose”).\nDue to the striking response to combination treatment, dosing in Groups 2-5 was stopped on Day 20 in order to monitor tumor re-growth. Dosing was to be re-initiated in a group when the mean tumor burden reached 1000 mm^3. By Day 42, the 1000 mm^3 mean tumor burden had not been reached in any of the combination groups. Dosing was re-initiated to permit post-final dose serum and tumor sampling for pharmacokinetic analyses. […] The final dosing schedules are shown below in Table 16.\nTumors were measured using calipers twice per week, and each animal was euthanized when its tumor reached the pre-determined tumor volume endpoint of 2000 mm^3 or on the final day, whichever came first. Animals that exited the study for tumor volume endpoint were documented as euthanized for tumor progression (TP), with the date of euthanasia. The time to endpoint (TTE) for analysis was calculated for each mouse by the following equation:\n[formula] where TTE is expressed in days, endpoint volume is expressed in mm^3, b is the intercept, and m is the slope of the line obtained by linear regression of a log-transformed tumor growth data set. The data set consists of the first observation that exceeded the endpoint volume used in analysis and the three consecutive observations that immediately preceded the attainment of this endpoint volume. The calculated TTE is usually less than the TP date, the day on which the animal was euthanized for tumor size. […] Any animal classified as having died from NTR (non-treatment-related) causes due to accident (NTRa) or due to unknown etiology (NTRu) were excluded from TTE calculations (and all further analyses). Animals classified as TR (treatment-related) deaths or NTRm (non-treatment-related death due to metastasis) were assigned a TTE value equal to the day of death. […]"}, "[4]": {"system": "melanoma xenograft model derived from biopsies obtained from a patient", "assay": "Melanoma xenograft model derived from patient biopsies after progression on vemurafenib", "format": "in vivo", "settings": "model with acquired cross-resistance"}, "[5]": {"system": "MAPK signaling pathway in A375 and HCT116 cells", "settings": "Morris et al., 2013; cited from earlier work"}}, "note": "Like-named read-outs stand apart in the source and are kept apart here.", "data": [{"compound": "CCCS(=O)(=O)Nc1ccc(F)c(C(=O)c2c[nH]c3ncc(-c4ccc(Cl)cc4)cc23)c1F", "note": "[Vemurafenib]", "values": [{"measurement": "IC50", "setting": "A375; Homo sapiens, A-375", "result": 47, "unit": "nM"}, {"measurement": "IC50", "setting": "G-361; Homo sapiens", "result": 248, "unit": "nM"}]}, {"compound": "N#Cc1c(Oc2ccc(F)c(NC(=O)Cc3cccc(C(F)(F)F)c3)c2)ccc2nc(NC(=O)C3CC3)sc12", "note": "[TAK-632]", "values": [{"measurement": "IC50", "setting": "A375", "result": 26, "unit": "nM"}, {"measurement": "IC50", "setting": "G-361", "result": 164, "unit": "nM"}]}, {"compound": "CC(C)Nc1cc(-c2c[nH]c(C(=O)N[C@H](CO)c3cccc(Cl)c3)c2)c(Cl)cn1", "note": "[BVD-523]", "values": [{"measurement": "Increase in drug exposure beyond the IC50 that cells withstand", "setting": "A375 cells", "result": "less than 10 fold"}, {"measurement": "IC50", "setting": "A375; Homo sapiens, A-375", "result": 87, "unit": "nM"}, {"measurement": "IC50", "setting": "G-361; Homo sapiens", "result": 344, "unit": "nM"}, {"measurement": "Deaths NTR", "setting": "[1]; G8: 50 mg/kg po bid to end", "result": 0}, {"measurement": "Deaths TR", "setting": "[1]; G8: 50 mg/kg po bid to end", "result": 0}, {"measurement": "Mean BW Nadir", "setting": "[1]; G8: 50 mg/kg po bid to end, nadir on Day 2", "result": "−0.1", "unit": "% Day 2"}, {"measurement": "Deaths NTR", "setting": "[1]; G9: 100 mg/kg po bid to end", "result": 0}, {"measurement": "Deaths TR", "setting": "[1]; G9: 100 mg/kg po bid to end", "result": 0}, {"measurement": "PARP protein cleavage and increased apoptosis", "setting": "[2]; A375 cell background", "result": "not noted"}, {"measurement": "Autophosphorylation of ERK", "setting": "[2]; FIG. 18", "result": "allows for the autophosphorylation of ERK while still inhibiting ERK"}, {"measurement": "DUSP6 total protein levels", "setting": "[2]; prolonged treatment", "result": "greatly reduced"}, {"measurement": "cyclin-D1 protein levels", "setting": "[2]; prolonged treatment", "result": "greatly reduced"}, {"measurement": "total levels of Bim-EL", "setting": "[2]; prolonged treatment", "result": "increase"}, {"measurement": "% TGD", "setting": "[3]; G8: 50 mg/kg po bid to end", "result": "−7", "unit": "%"}, {"measurement": "Median TTE", "setting": "[3]; G8: 50 mg/kg po bid to end", "result": 8.6, "unit": "days"}, {"measurement": "PR (partial regressions)", "setting": "[3]; G8: 50 mg/kg po bid to end", "result": 0}, {"measurement": "MTV (n) D45", "setting": "[3]; G8: 50 mg/kg po bid to end", "result": "0 (1) imd"}, {"measurement": "% TGD", "setting": "[3]; G9: 100 mg/kg po bid to end", "result": 101, "unit": "%"}, {"measurement": "Median TTE", "setting": "[3]; G9: 100 mg/kg po bid to end", "result": 18.5, "unit": "days"}, {"measurement": "PR (partial regressions)", "setting": "[3]; G9: 100 mg/kg po bid to end", "result": 0}, {"measurement": "T-C", "setting": "[3]; G9: 100 mg/kg po bid to end", "result": 9.3, "unit": "days"}, {"measurement": "MTV (n) D45", "setting": "[3]; G9: 100 mg/kg po bid to end", "result": "2 (2) imd"}, {"measurement": "Anti-tumor response", "setting": "[4]", "result": "potent anti-tumor response"}]}, {"compound": "O=C(Nc1ccc2[nH]nc(-c3ccncc3)c2c1)[C@@H]1CCN(CC(=O)N2CCN(c3ccc(-c4ncccn4)cc3)CC2)C1", "note": "[SCH772984]", "values": [{"measurement": "IC50", "setting": "A375; Homo sapiens, A-375", "result": 32, "unit": "nM"}, {"measurement": "IC50", "setting": "G-361; Homo sapiens", "result": 180, "unit": "nM"}, {"measurement": "Autophosphorylation of ERK", "setting": "[5]", "result": "inhibit autophosphorylation of ERK"}]}]}
